Patent publication US20250230138A1, “COMPOUNDS HAVING A T-STRUCTURE FORMED BY AT LEAST FOUR CYCLES FOR USE IN THE TREATMENT OF CANCER AND OTHER INDICATIONS” (TheRas, Inc., priority 2022, published 2025)
Like-named read-outs stand apart in the source and are kept apart here.

Experiments:
[1] = target: Cys242 in human PIK3CA (157-299) (Homo sapiens (Human), UniProt P42336); experiment: Covalent modification assay using MALDI-TOF MS; type: biochemical; settings: 4 h reaction time point; 3.33 μM protein target, 1:7.5 protein to compound ratio (compounds 1-852)
In short: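 PIK3CA (157-299), 3.33 or 1 μM in 20 mM HEPES, 150 mM NaCl, 2 mM MgCl2, pH 7.3, was incubated with compound at room temperature in the dark for 15 min, 30 min, 2 h or 4 h. Linear MALDI-TOF read-out; % modification = adduct peak height over summed heights of all protein species.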

[2] = system: pAKT in BT474 cells; experiment: Cell-based pAKT HTRF assay in BT474 cells; settings: BT474 cells, 4 hr incubation, Compounds 10-999, read-out: pAKT inhibition IC50 in BT474 cells
In short: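 Cells grown in DMEM with 10% FBS were exposed to compounds for 4 hr in 0.25% DMSO, using a 9-point, 3-fold dilution series that starts at 3 μM. Lysates were incubated with d2 and Eu Cryptate antibodies for 4–24 h at room temperature, and HTRF was read at 615 nm emission.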

Chain of Cys242 in human PIK3CA (157-299) (P42336 157-299): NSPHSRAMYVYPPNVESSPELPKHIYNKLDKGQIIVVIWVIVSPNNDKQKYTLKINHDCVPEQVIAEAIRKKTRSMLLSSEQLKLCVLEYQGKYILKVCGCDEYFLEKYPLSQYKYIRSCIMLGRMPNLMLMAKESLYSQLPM

Compound | IC50 [2] [µM] | IC50 ([2]; Homo sapiens, BT-474) [µM] | % of modification [1]
C=CC(=O)N1CCC(n2cc(-c3nc(-c4ccc5c(c4)CCNC5)c4ccsc4c3-c3c(F)cc(F)cc3OC(C)C)cn2)C1 (stereo not shown) [Compound 410] | 0.1 to 1 | – | A (percent of modification of PIK3CA protein ≥75%)
C=CC(=O)N1CCc2ccc(-c3nc(-c4ccc5c(c4)CNC5=O)c4ccsc4c3-c3c(F)cc(F)cc3OC(C)C)nc2C1 [Compound 411, 5-[7-(2,4-difluoro-6-isopropoxy-phenyl)-6-(7-prop-2-enoyl-6,8-dihydro-5H-1,7-naphthyridin-2-yl)thieno[3,2-c]pyridin-4-yl]isoindolin-1-one] | – | < 0.1 | A (percent of modification of PIK3CA protein ≥75%)
C=CC(=O)N1CCc2nc(-c3nc(-c4ccc5c(c4)CCNC5)c4ccsc4c3-c3c(F)cc(F)cc3OCCO)sc2C1 [Compound 415] | 0.1 to 1 | – | A (percent of modification of PIK3CA protein ≥75%)
C=CC(=O)N1CCc2nc(-c3nc(-c4ccc(C(C)(C)O)cc4)c4ccsc4c3-c3c(F)cc(F)cc3OCCOC)sc2C1 [Compound 419] | 0.1 to 1 | – | A (percent of modification of PIK3CA protein ≥75%)
C=CC(=O)N1CCc2ncc(-c3nc(N4CCC5(CC4)COC5)c4ccsc4c3-c3c(F)cc(F)cc3OC(C)C)cc2C1 [Compound 423] | 0.1 to 1 | – | A (percent of modification of PIK3CA protein ≥75%)
C=CC(=O)N1CCc2nc(-c3nc(-c4cccc(C(C)(C)O)c4)c4ccsc4c3-c3c(F)cc(F)cc3OCCOC)sc2C1 [Compound 429] | 0.1 to 1 | – | A (percent of modification of PIK3CA protein ≥75%)
C=CC(=O)N1CCc2nc(-c3nc(-c4ccc5c(c4)CCNC5)c4ccsc4c3-c3c(F)cc(F)cc3OCC)sc2C1 [Compound 430] | 0.1 to 1 | – | A (percent of modification of PIK3CA protein ≥75%)
C=CC(=O)N1CCc2nc(-c3nc(-c4cnc(C)s4)c4ccsc4c3-c3c(F)cc(F)cc3OCCOC)sc2C1 [Compound 431] | 0.1 to 1 | – | A (percent of modification of PIK3CA protein ≥75%)
C=CC(=O)N1CCc2nc(-c3nc(-c4ccc5c(c4)CCNC5)c4c(F)csc4c3-c3c(F)cc(F)cc3OCCOC)sc2C1 [Compound 434, 1-[2-[7-[2,4-difluoro-6-(2-methoxyethoxy)phenyl]-3-fluoro-4-(1,2,3,4-tetrahydroisoquinolin-6-yl)thieno[3,2-c]pyridin-6-yl]-6,7-dihydro-4H-thiazolo[5,4-c]pyridin-5-yl]prop-2-en-1-one] | – | 0.1 to 1 | A (percent of modification of PIK3CA protein ≥75%)
C=CC(=O)N1CCc2nc(-c3nc(-c4ccc(C5(N)CCC5)cc4)c4ccsc4c3-c3c(F)cc(F)cc3OCCOC)sc2C1 [Compound 436] | 0.1 to 1 | – | A (percent of modification of PIK3CA protein ≥75%)
C=CC(=O)N1CCc2nc(-c3nc(-c4ccc5c(c4)CCN(C)C5)c4ccsc4c3-c3c(F)cc(F)cc3OCC)sc2C1 [Compound 438] | 0.1 to 1 | – | A (percent of modification of PIK3CA protein ≥75%)
C=CC(=O)N1CCc2nc(-c3nc(-c4ccc(C(C)(C)C#N)cc4)c4ccsc4c3-c3c(F)cc(F)cc3OCCOC)sc2C1 [Compound 439] | 0.1 to 1 | – | D (percent of modification <25%)

The next lines start with results.

IC50 [2] [µM] | IC50 ([2]; Homo sapiens, BT-474) [µM] | Compound | % of modification [1]
< 0.1 | – | C=CC(=O)N1CCc2ncc(-c3nc(-c4ccc5nn(C)cc5c4)c4ccsc4c3-c3c(F)cc(F)cc3OCCOC)cc2C1 [Compound 400] | A (percent of modification of PIK3CA protein ≥75%)
0.1 to 1 | – | C=CC(=O)N1CCc2nc(-c3nc(-c4cnn(CC(C)(C)N)c4)c4ccsc4c3-c3c(F)cc(F)cc3OC(C)C)sc2C1 [Compound 401] | A (percent of modification of PIK3CA protein ≥75%)
< 0.1 | – | C=CC(=O)N1CCc2ncc(-c3nc(-c4ccc5c(c4)CN(C)C5=O)c4ccsc4c3-c3c(F)cc(F)cc3OCCOC)cc2C1 [Compound 402] | A (percent of modification of PIK3CA protein ≥75%)
< 0.1 | – | C=CC(=O)N1CCc2ncc(-c3nc(-c4ccc5ncn(C)c5c4)c4ccsc4c3-c3c(F)cc(F)cc3OCCOC)cc2C1 [Compound 403] | A (percent of modification of PIK3CA protein ≥75%)
< 0.1 | – | C=CC(=O)N1CCc2ncc(-c3nc(-c4ccn(C)n4)c4ccsc4c3-c3c(F)cc(F)cc3OC(C)C)cc2C1 [Compound 404] | A (percent of modification of PIK3CA protein ≥75%)
< 0.1 | – | C=CC(=O)N1CCc2ncc(-c3nc(-c4cnn(C)c4)c4ccsc4c3-c3c(F)cc(F)cc3OC)cc2C1 [Compound 405] | A (percent of modification of PIK3CA protein ≥75%)
< 0.1 | – | C=CC(=O)N1CCc2ncc(-c3nc(-c4cncc(F)c4)c4ccsc4c3-c3c(F)cc(F)cc3OC(C)C)cc2C1 [Compound 406] | A (percent of modification of PIK3CA protein ≥75%)
< 0.1 | – | C=CC(=O)N1CCc2ncc(-c3nc(-c4ccc5c(c4)CN(C)C5=O)c4ccsc4c3-c3c(F)cc(F)cc3OC(C)C)cc2C1 [Compound 407] | A (percent of modification of PIK3CA protein ≥75%)
< 0.1 | – | C=CC(=O)N1CCc2ncc(-c3nc(-c4cnc(C)n4C)c4ccsc4c3-c3c(F)cc(F)cc3OC(C)C)cc2C1 [Compound 412] | A (percent of modification of PIK3CA protein ≥75%)
< 0.1 | – | C=CC(=O)N1CCc2nc(-c3nc(-c4ccc5c(c4)C(O)CC5)c4ccsc4c3-c3c(F)cc(F)cc3OCCOC)sc2C1 (stereo not shown) [Compound 416] | A (percent of modification of PIK3CA protein ≥75%)
< 0.1 | – | C=CC(=O)N1CCc2nc(-c3nc(-c4ccc5c(c4)CCNC5)c4ccoc4c3-c3ccc(F)cc3OCCOC)sc2C1 [Compound 417] | A (percent of modification of PIK3CA protein ≥75%)
< 0.1 | – | C=CC(=O)N1CCc2nc(-c3nc(-c4ccc5c(c4)CCN(C)C5)c4ccsc4c3-c3c(F)cc(F)cc3OCCO)sc2C1 [Compound 418] | A (percent of modification of PIK3CA protein ≥75%)
< 0.1 | – | C=CC(=O)N1CCc2ncc(-c3nc(-c4cn(C)cn4)c4ccsc4c3-c3c(F)cc(F)cc3OC(C)C)cc2C1 [Compound 421] | A (percent of modification of PIK3CA protein ≥75%)
< 0.1 | – | C=CC(=O)N1CCc2ncc(-c3nc(-c4ccc5c(c4)CCN(C)C5)c4ccsc4c3-c3c(F)cc(F)cc3OC)cc2C1 [Compound 425] | A (percent of modification of PIK3CA protein ≥75%)
< 0.1 | – | C=CC(=O)N1CCc2nc(-c3nc(-c4ccc(C5(N)COC5)cc4)c4ccsc4c3-c3c(F)cc(F)cc3OCCOC)sc2C1 [Compound 426] | A (percent of modification of PIK3CA protein ≥75%)
< 0.1 | – | C=CC(=O)N1CCc2nc(-c3nc(-c4ccc5nn(C)cc5c4)c4ccsc4c3-c3c(F)cc(F)cc3OCCOC)sc2C1 [Compound 427] | A (percent of modification of PIK3CA protein ≥75%)
< 0.1 | – | C=CC(=O)N1CCc2nc(-c3nc(-c4ccc5oc(C)nc5c4)c4ccsc4c3-c3c(F)cc(F)cc3OCCOC)sc2C1 [Compound 428] | A (percent of modification of PIK3CA protein ≥75%)
